# Source: the SangsterLogP compilation
row,SMILES,logP
1,Oc1cc(Cl)cc(Cl)c1,3.26
2,ClC1=C(Cl)C2(Cl)C3C4CC(C5OC45)C3C1(Cl)C2(Cl)Cl (configuration not stated),5.11
3,Oc1ccc(Cl)c(Cl)c1,3.05
4,Cc1cc(C)c(C)c(C)c1C,4.56
5,Cc1cc(C)c(C)c(C)c1,4.17
6,Nc1c(Cl)c(Cl)c(Cl)c(Cl)c1Cl,4.59
7,Nc1ccc(Cl)c(Cl)c1Cl,3.33
8,Cc1cc(C)cc(C)c1,3.84
9,Cc1ccc(C)c(C)c1C,4.11
10,Oc1cc(Cl)c(Cl)c(Cl)c1,3.75
11,Nc1cc(Cl)c(Cl)c(Cl)c1,3.32
12,Nc1c(Cl)cccc1Cl,2.71
